This note sets out measurements from PMC2871681 (Bioorganic & medicinal chemistry, 2010).

“Also recorded” adds a separate entry of the source. Read-outs that look alike come from different tables or passages of the source. Where only a bound is given, the exact number is not on record here.

What is called IC50 is the point on the concentration scale where inhibition reaches its midpoint. Broadly, the Ki is the equilibrium dissociation constant of an inhibitor or competing ligand from its target.

Test [1] deals with T1, mGluR5 (Rattus norvegicus, UniProt P31424). In words: mGluR5 functional assay, calcium fluorescence. Type of test: cell-based.
T1 sequence (P31424 21-1203): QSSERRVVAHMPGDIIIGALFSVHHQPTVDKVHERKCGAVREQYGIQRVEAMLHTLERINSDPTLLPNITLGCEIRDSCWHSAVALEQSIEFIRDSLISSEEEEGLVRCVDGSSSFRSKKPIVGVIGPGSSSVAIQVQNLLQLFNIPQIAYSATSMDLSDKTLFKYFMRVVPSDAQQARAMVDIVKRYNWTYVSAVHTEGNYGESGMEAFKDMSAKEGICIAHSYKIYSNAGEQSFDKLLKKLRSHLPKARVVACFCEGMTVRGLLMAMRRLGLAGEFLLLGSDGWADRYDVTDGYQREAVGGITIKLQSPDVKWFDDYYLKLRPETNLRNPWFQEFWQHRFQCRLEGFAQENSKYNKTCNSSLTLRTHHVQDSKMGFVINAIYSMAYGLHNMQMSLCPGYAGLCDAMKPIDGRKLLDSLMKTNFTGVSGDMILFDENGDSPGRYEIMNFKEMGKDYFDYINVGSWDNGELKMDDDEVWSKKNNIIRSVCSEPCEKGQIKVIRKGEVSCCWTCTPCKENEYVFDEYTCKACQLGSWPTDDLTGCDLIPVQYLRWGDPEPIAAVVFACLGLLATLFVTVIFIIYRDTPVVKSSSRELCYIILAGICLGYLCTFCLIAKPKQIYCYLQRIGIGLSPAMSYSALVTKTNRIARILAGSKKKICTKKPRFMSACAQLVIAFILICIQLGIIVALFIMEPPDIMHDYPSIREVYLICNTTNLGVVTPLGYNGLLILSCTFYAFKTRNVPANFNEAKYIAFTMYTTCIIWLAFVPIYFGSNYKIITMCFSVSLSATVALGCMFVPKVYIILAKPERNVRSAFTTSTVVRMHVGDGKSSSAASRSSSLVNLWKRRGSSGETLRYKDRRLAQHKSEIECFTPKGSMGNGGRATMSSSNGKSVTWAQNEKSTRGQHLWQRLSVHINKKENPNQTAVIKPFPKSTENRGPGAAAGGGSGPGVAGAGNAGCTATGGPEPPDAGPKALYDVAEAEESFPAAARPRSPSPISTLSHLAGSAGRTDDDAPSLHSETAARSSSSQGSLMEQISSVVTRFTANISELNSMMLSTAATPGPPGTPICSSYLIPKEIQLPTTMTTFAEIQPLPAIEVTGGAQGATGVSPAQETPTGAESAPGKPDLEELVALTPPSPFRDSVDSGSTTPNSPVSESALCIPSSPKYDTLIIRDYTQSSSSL
In test [2] the target is T1, mGluR5. The test is described as follows: mGluR5 radioligand displacement binding assay with [3H]MPEP. Conditions: for decrease in binding affinity compared to the phenyl analogue: 17 v. 22, 18 v. 25.
Setting [3] is: read-out: mGluR5 function (Ca+2 flux) IC50±SEM, inhibition of glutamate-induced calcium mobilization.
The mark [4] stands for this setting: read-out: mGluR5 binding affinity Ki±SEM, [3H]MPEP, rat brain membranes or HEK293-T cells transfected with cloned rat mGluR5.

Take “2-(Pyridin-3-yl)-4-(2-methylbenzo[d]thiazol-5-yl)benzonitrile [compound 26]”: the IC50 on mGluR5 [1] (setting [3]) is > 10000 nM. For the same compound, at mGluR5 [2], the “activity at mGluR5 in words” value was “completely inactive”. For the same compound, at mGluR5 [2] (setting [4]), the Ki was > 10000 nM. For the compound “2-Phenyl-4-(2-methylbenzo[d]thiazol-5-yl)benzonitrile [compound 25]”, the IC50 on mGluR5 [1] (setting [3]) is 6890 ± 1250 nM. Further, the “increase in binding affinity compared to parent structure 4” value on mGluR5 [2] (25 v. 4) is listed as ~ 4 fold. On mGluR5 [2] (setting [4]), the Ki stood at 483 ± 98 nM. Turning to `Cc1ccc2ccc(-c3ccc(OCc4ccccc4)c(C#N)c3)cc2n1` [compound 17, 2-Benzoxy-5-(2-methylquinolin-7-yl)benzonitrile], the “decrease in binding affinity compared to the phenyl analogue” value at mGluR5 [2] was ~ 10 fold.

Turning to `Cc1nc2cc(-c3ccc(OCc4ccccc4)c(C#N)c3)ccc2s1` [compound 18, 2-Benzoxy-5-(2-methylbenzo[d]thiazol-5-yl)benzonitrile], on mGluR5 [2], the “decrease in binding affinity compared to the phenyl analogue” value is 15 fold. For the compound `Cc1ccc2ccc(-c3cncc(C#N)c3)cc2n1` [compound 30, 5-(2-Methylquinolin-7-yl)nicotinonitrile], on mGluR5 [1], the IC50 came out at 68 ± 5.3 nM. The Ki at mGluR5 [2] stood at 100 ± 21 nM. `Cc1ccc2ccc(-c3cnc(Cl)c(C#N)c3)cc2n1` [compound 31, 2-Chloro-5-(2-methylquinolin-7-yl)nicotinonitrile]: the “mode of mGluR5 antagonism (full or partial)” value at mGluR5 [1] (glutamate-induced mGluR5 activity) is listed as “partial antagonist activity; also recorded: weak partial antagonist”.
